Results from PubChem BioAssay (NCI).
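Test compounds were applied to cells in 96-well plates for 48 hours at 5 doses. The concentration for 50% growth inhibition is given as GI50. TGI marks complete inhibition of growth.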

Key:
Assay in all cases: NCI anticancer screen, dose series, 48 h
NCI/ADR-RES ovarian = system: NCI/ADR-RES ovarian
OVCAR-5 ovarian = system: OVCAR-5 ovarian
SR leukemia = system: SR leukemia
SK-MEL-2 melanoma = system: SK-MEL-2 melanoma
SNB-75 CNS = system: SNB-75 CNS
MDA-MB-435 = system: MDA-MB-435
BT-549 breast = system: BT-549 breast
K-562 leukemia = system: K-562 leukemia
TK-10 renal = system: TK-10 renal
LOX IMVI melanoma = system: LOX IMVI melanoma
OVCAR-3 ovarian = system: OVCAR-3 ovarian
MDA-MB-231 breast = system: MDA-MB-231 breast
NCI-H226 lung = system: NCI-H226 lung
ACHN renal = system: ACHN renal
HT29 colon = system: HT29 colon
HOP-92 NSCLC = system: HOP-92 NSCLC
RXF 393 renal = system: RXF 393 renal
SNB-19 CNS = system: SNB-19 CNS
786-0 renal = system: 786-0 renal
A498 renal = system: A498 renal
NCI-H23 lung = system: NCI-H23 lung
T-47D breast = system: T-47D breast
UO-31 renal = system: UO-31 renal
SK-MEL-5 melanoma = system: SK-MEL-5 melanoma
SF-295 CNS = system: SF-295 CNS
MOLT-4 leukemia = system: MOLT-4 leukemia
MCF7 breast = system: MCF7 breast
KM12 colon = system: KM12 colon
IGROV1 ovarian = system: IGROV1 ovarian
CCRF-CEM leukemia = system: CCRF-CEM leukemia
U251 CNS = system: U251 CNS
SF-268 CNS = system: SF-268 CNS
SN12C renal = system: SN12C renal
SK-MEL-28 melanoma = system: SK-MEL-28 melanoma
UACC-257 melanoma = system: UACC-257 melanoma
EKVX NSCLC = system: EKVX NSCLC
RPMI-8226 leukemia = system: RPMI-8226 leukemia
DU-145 prostate = system: DU-145 prostate
HS 578T breast = system: HS 578T breast
NCI-H460 lung = system: NCI-H460 lung
M14 melanoma = system: M14 melanoma
HCT-116 colon = system: HCT-116 colon
CAKI-1 renal = system: CAKI-1 renal
HL-60(TB) leukemia = system: HL-60(TB) leukemia
OVCAR-8 ovarian = system: OVCAR-8 ovarian
A549 NSCLC = system: A549 NSCLC
MALME-3M melanoma = system: MALME-3M melanoma
HCC-2998 colon = system: HCC-2998 colon
SF-539 CNS = system: SF-539 CNS
PC-3 prostate = system: PC-3 prostate
HCT-15 colon = system: HCT-15 colon
OVCAR-4 ovarian = system: OVCAR-4 ovarian
HOP-62 NSCLC = system: HOP-62 NSCLC
NCI-H522 lung = system: NCI-H522 lung
UACC-62 melanoma = system: UACC-62 melanoma
SW-620 colon = system: SW-620 colon
COLO 205 colon = system: COLO 205 colon
SK-OV-3 ovarian = system: SK-OV-3 ovarian

`CC(=O)N/N=C1/NN(C(C)=O)C2(S1)C(=O)Nc1ccc(Br)cc12` (centres undefined) was tested, and the TGI (NCI/ADR-RES ovarian) was > 100 µM, the TGI (OVCAR-5 ovarian) was > 100 µM and the TGI (SR leukemia) was > 100 µM. The TGI (SK-MEL-2 melanoma) was > 100 µM, the TGI (SNB-75 CNS) was > 100 µM and the TGI (MDA-MB-435) was > 100 µM. The TGI (BT-549 breast) was > 100 µM, the TGI (K-562 leukemia) was > 100 µM and the TGI (TK-10 renal) was > 100 µM. For the same molecule, the TGI (LOX IMVI melanoma) was > 100 µM, the TGI (OVCAR-3 ovarian) was > 100 µM and the TGI (MDA-MB-231 breast) was > 100 µM. The TGI (NCI-H226 lung) was > 100 µM, the TGI (ACHN renal) was > 100 µM and the TGI (HT29 colon) was > 100 µM. For the same molecule, the TGI (HOP-92 NSCLC) was > 100 µM, the TGI (RXF 393 renal) was > 100 µM and the TGI (SNB-19 CNS) was > 100 µM. For the same molecule, the TGI (786-0 renal) was > 100 µM, the TGI (A498 renal) was > 100 µM and the TGI (NCI-H23 lung) was > 100 µM. The TGI (T-47D breast) was > 100 µM, the TGI (UO-31 renal) was > 100 µM and the TGI (SK-MEL-5 melanoma) was > 100 µM. For the same molecule, the TGI (SF-295 CNS) was > 100 µM, the TGI (MOLT-4 leukemia) was > 100 µM and the TGI (MCF7 breast) was > 100 µM. The TGI (KM12 colon) was > 100 µM, the TGI (IGROV1 ovarian) was > 100 µM and the TGI (CCRF-CEM leukemia) was > 100 µM. The TGI (U251 CNS) was > 100 µM, the TGI (SF-268 CNS) was > 100 µM and the TGI (SN12C renal) was > 100 µM. For the same molecule, the TGI (SK-MEL-28 melanoma) was > 100 µM, the TGI (UACC-257 melanoma) was > 100 µM and the TGI (EKVX NSCLC) was > 100 µM. The TGI (RPMI-8226 leukemia) was > 100 µM, the TGI (DU-145 prostate) was > 100 µM and the TGI (HS 578T breast) was > 100 µM. For the same molecule, the TGI (NCI-H460 lung) was > 100 µM, the TGI (M14 melanoma) was > 100 µM and the TGI (HCT-116 colon) was > 100 µM. The TGI (CAKI-1 renal) was > 100 µM, the TGI (HL-60(TB) leukemia) was > 100 µM and the TGI (OVCAR-8 ovarian) was > 100 µM. The TGI (A549 NSCLC) was > 100 µM, the TGI (MALME-3M melanoma) was > 100 µM and the TGI (HCC-2998 colon) was > 100 µM. For the same molecule, the TGI (SF-539 CNS) was > 100000 nM, the TGI (PC-3 prostate) was > 100 µM and the TGI (HCT-15 colon) was > 100 µM. For the same molecule, the TGI (OVCAR-4 ovarian) was > 100 µM, the TGI (HOP-62 NSCLC) was > 100 µM and the TGI (NCI-H522 lung) was > 100 µM. The TGI (UACC-62 melanoma) was > 100 µM.
With `CNC(=O)n1ccc2cc(Oc3ccnc(NC(=O)c4ccc(C5CCN(CCO)CC5)cc4)c3)c(OCCOC)cc21` the GI50 (NCI/ADR-RES ovarian) was 12.9 µM, the TGI (NCI/ADR-RES ovarian) was 42.4 µM and the GI50 (OVCAR-5 ovarian) was 8.43 µM. It also gave a TGI (OVCAR-5 ovarian) of 22.7 µM, a GI50 (SR leukemia) of 2270 nM and a TGI (SR leukemia) of 25 µM. It also gave a GI50 (SK-MEL-2 melanoma) of 8.57 µM, a TGI (SK-MEL-2 melanoma) of 23.2 µM and a GI50 (SNB-75 CNS) of 1840 nM. The TGI (SNB-75 CNS) was 7.28 µM, the GI50 (MDA-MB-435) was 3.2 µM and the TGI (MDA-MB-435) was 11.8 µM. For the same molecule, the GI50 (BT-549 breast) was 2350 nM, the TGI (BT-549 breast) was 14.2 µM and the GI50 (SW-620 colon) was 6.3 µM. For the same molecule, the TGI (SW-620 colon) was 18.9 µM, the GI50 (K-562 leukemia) was 529 nM and the TGI (K-562 leukemia) was 10.6 µM. For the same molecule, the GI50 (TK-10 renal) was 15.3 µM, the TGI (TK-10 renal) was 29.6 µM and the GI50 (LOX IMVI melanoma) was 1770 nM. It also gave a TGI (LOX IMVI melanoma) of 3.7 µM, a GI50 (OVCAR-3 ovarian) of 3.67 µM and a TGI (OVCAR-3 ovarian) of 11 µM. The GI50 (MDA-MB-231 breast) was 2460 nM, the TGI (MDA-MB-231 breast) was 6.11 µM and the GI50 (NCI-H226 lung) was 12.1 µM. For the same molecule, the TGI (NCI-H226 lung) was 31.3 µM, the GI50 (ACHN renal) was 3.16 µM and the TGI (ACHN renal) was 10.7 µM. The GI50 (COLO 205 colon) was 2830 nM, the TGI (COLO 205 colon) was 8.6 µM and the GI50 (HT29 colon) was 801 nM. For the same molecule, the TGI (HT29 colon) was 11.1 µM, the GI50 (HOP-92 NSCLC) was 3.48 µM and the TGI (HOP-92 NSCLC) was 20.6 µM. The GI50 (RXF 393 renal) was 1340 nM, the TGI (RXF 393 renal) was 3.09 µM and the GI50 (SNB-19 CNS) was 7.47 µM. The TGI (SNB-19 CNS) was 21.5 µM, the GI50 (786-0 renal) was 1940 nM and the TGI (786-0 renal) was 4.38 µM. It also gave a GI50 (NCI-H23 lung) of 10.5 µM, a TGI (NCI-H23 lung) of 24.4 µM and a GI50 (T-47D breast) of 11.8 µM. It also gave a TGI (T-47D breast) of 36 µM, a GI50 (UO-31 renal) of 16.5 µM and a TGI (UO-31 renal) of 33.2 µM. The GI50 (SK-MEL-5 melanoma) was 1960 nM, the TGI (SK-MEL-5 melanoma) was 3.86 µM and the GI50 (SF-295 CNS) was 8.54 µM. It also gave a TGI (SF-295 CNS) of 21 µM, a GI50 (MOLT-4 leukemia) of 2650 nM and a TGI (MOLT-4 leukemia) of 12.7 µM. For the same molecule, the GI50 (MCF7 breast) was 4.33 µM, the TGI (MCF7 breast) was 19.5 µM and the GI50 (KM12 colon) was 10.4 µM. For the same molecule, the TGI (KM12 colon) was 24.5 µM, the GI50 (IGROV1 ovarian) was 5.65 µM and the TGI (IGROV1 ovarian) was 20.7 µM. The GI50 (CCRF-CEM leukemia) was 2800 nM, the TGI (CCRF-CEM leukemia) was > 100 µM and the GI50 (U251 CNS) was 3.15 µM. The TGI (U251 CNS) was 12.3 µM, the GI50 (SF-268 CNS) was 10.2 µM and the TGI (SF-268 CNS) was 23 µM. For the same molecule, the GI50 (SN12C renal) was 13.5 µM, the TGI (SN12C renal) was 27.9 µM and the GI50 (SK-MEL-28 melanoma) was 6.33 µM. The TGI (SK-MEL-28 melanoma) was 19.2 µM, the GI50 (UACC-257 melanoma) was 2240 nM and the TGI (UACC-257 melanoma) was 5.73 µM. The GI50 (EKVX NSCLC) was 14.7 µM, the TGI (EKVX NSCLC) was 29.3 µM and the GI50 (RPMI-8226 leukemia) was 2000 nM. It also gave a TGI (RPMI-8226 leukemia) of 6.58 µM, a GI50 (DU-145 prostate) of 11.2 µM and a TGI (DU-145 prostate) of 23.2 µM. For the same molecule, the GI50 (HS 578T breast) was 1840 nM, the TGI (HS 578T breast) was 7.37 µM and the GI50 (NCI-H460 lung) was 3.22 µM. For the same molecule, the TGI (NCI-H460 lung) was 10.2 µM, the GI50 (M14 melanoma) was 1980 nM and the TGI (M14 melanoma) was 4.24 µM. For the same molecule, the GI50 (HCT-116 colon) was 2630 nM, the TGI (HCT-116 colon) was 11.9 µM and the GI50 (CAKI-1 renal) was 3.08 µM. For the same molecule, the TGI (CAKI-1 renal) was 11.3 µM, the GI50 (HL-60(TB) leukemia) was 2130 nM and the TGI (HL-60(TB) leukemia) was 4.58 µM. It also gave a GI50 (OVCAR-8 ovarian) of 4.51 µM, a TGI (OVCAR-8 ovarian) of 19.5 µM and a GI50 (A549 NSCLC) of 5.27 µM. For the same molecule, the TGI (A549 NSCLC) was 21.4 µM, the GI50 (MALME-3M melanoma) was 1620 nM and the TGI (MALME-3M melanoma) was 3.15 µM. For the same molecule, the GI50 (SK-OV-3 ovarian) was 10.5 µM, the TGI (SK-OV-3 ovarian) was 23.1 µM and the GI50 (HCC-2998 colon) was 8.57 µM. It also gave a TGI (HCC-2998 colon) of 21.3 µM, a GI50 (SF-539 CNS) of 1120 nM and a TGI (SF-539 CNS) of 2560 nM. For the same molecule, the GI50 (PC-3 prostate) was 6.1 µM, the TGI (PC-3 prostate) was 26.2 µM and the GI50 (HCT-15 colon) was 4.42 µM. The TGI (HCT-15 colon) was 15.6 µM, the GI50 (OVCAR-4 ovarian) was 1990 nM and the TGI (OVCAR-4 ovarian) was 5.78 µM. It also gave a GI50 (HOP-62 NSCLC) of 4.56 µM, a TGI (HOP-62 NSCLC) of 18.6 µM and a GI50 (NCI-H522 lung) of 3.09 µM. It also gave a TGI (NCI-H522 lung) of 11 µM, a GI50 (UACC-62 melanoma) of 5.23 µM and a TGI (UACC-62 melanoma) of 17.5 µM.
